The experiment addresses T1, Phosphatidylinositol 3,4,5-trisphosphate 5-phosphatase 1 (Homo sapiens, UniProt Q92835).
T1 sequence (Q92835 whole entry): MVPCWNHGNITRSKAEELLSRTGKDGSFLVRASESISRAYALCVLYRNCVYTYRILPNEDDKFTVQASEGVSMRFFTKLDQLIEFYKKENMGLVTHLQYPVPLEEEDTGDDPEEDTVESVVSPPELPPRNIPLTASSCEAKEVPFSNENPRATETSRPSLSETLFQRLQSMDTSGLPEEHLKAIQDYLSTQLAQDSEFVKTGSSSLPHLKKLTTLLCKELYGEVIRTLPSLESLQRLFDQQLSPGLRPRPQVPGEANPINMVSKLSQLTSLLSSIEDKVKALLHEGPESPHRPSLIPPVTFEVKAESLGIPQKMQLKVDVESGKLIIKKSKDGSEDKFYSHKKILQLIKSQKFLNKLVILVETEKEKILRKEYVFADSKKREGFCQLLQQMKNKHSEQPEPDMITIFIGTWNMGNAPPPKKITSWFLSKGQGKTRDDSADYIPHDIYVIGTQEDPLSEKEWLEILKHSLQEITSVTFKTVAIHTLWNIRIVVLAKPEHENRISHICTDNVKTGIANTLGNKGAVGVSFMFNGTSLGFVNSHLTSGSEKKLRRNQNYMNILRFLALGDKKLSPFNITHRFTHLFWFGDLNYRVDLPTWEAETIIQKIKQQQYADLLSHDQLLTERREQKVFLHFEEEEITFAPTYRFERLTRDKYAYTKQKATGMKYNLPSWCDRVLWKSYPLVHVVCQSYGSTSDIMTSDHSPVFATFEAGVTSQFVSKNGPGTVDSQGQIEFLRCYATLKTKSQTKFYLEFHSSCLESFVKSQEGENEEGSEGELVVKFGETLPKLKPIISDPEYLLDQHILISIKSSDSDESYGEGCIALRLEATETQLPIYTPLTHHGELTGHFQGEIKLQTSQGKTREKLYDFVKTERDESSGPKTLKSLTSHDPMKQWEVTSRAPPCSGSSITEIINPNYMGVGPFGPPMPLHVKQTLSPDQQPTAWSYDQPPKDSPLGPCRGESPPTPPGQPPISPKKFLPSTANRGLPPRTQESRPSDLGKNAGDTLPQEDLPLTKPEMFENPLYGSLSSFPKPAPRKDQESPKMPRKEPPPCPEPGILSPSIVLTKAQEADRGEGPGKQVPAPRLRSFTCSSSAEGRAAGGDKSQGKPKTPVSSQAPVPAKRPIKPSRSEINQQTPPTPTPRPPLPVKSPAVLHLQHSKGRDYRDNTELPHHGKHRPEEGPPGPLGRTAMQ
Kind of experiment: Inhibition of SHIP1 (unknown origin).

A word on the IC50: it is the point on the concentration scale where inhibition reaches its midpoint. High values mean a need for much substance, low ones inhibition by little substance.

Compound `CC(C)CCC[C@@H](C)[C@H]1CC[C@H]2[C@]3(C)CC[C@H]4C[C@H](N)CC[C@]4(C)[C@H]3CC[C@@]21C` came in with an IC50 of 2500 nM.

The record behind these values is ChEMBL document CHEMBL5241065, “If small molecules immunotherapy comes, can the prime be far behind?” (Eur J Med Chem, 2021).
